The NIST ThermoML archive (doi:10.1016/j.jct.2009.05.010)
“And” between values parts separate entries of the source, which are not always exact repeats. Equal entries are not always repeated.

Conditions: Crystal, Calculated from knudsen effusion weight loss

O=[N+]([O-])c1cc(Br)ccc1Br [1,4-dibromo-2-nitrobenzene]
Conditions	vapor or sublimation pressure
302.14 K	9.9e-05 kPa and 9.7e-05 kPa
304.16 K	0.000121 kPa and 0.000125 kPa and 0.000123 kPa
306.15 K	0.000167 kPa and 0.000166 kPa and 0.000163 kPa
308.15 K	0.000204 kPa and 0.000205 kPa and 0.000203 kPa
310.14 K	0.00026 kPa and 0.000264 kPa and 0.000261 kPa
312.14 K	0.000327 kPa and 0.000332 kPa and 0.000329 kPa
314.14 K	0.000418 kPa and 0.000419 kPa
316.14 K	0.000522 kPa and 0.000527 kPa and 0.000524 kPa
318.15 K	0.000666 kPa and 0.000675 kPa and 0.000673 kPa
320.15 K	0.000884 kPa and 0.000858 kPa and 0.000838 kPa
322.14 K	0.001072 kPa and 0.001068 kPa and 0.001063 kPa
